Our source for the T/C values is PubChem BioAssay AID330 (DTP/NCI, 2004).

“And” between values parts separate entries of the source, which are not always exact repeats. Equal entries are not always repeated. Inconclusive results and toxic doses are left out. Peptide text beside a SMILES is read from it.

The subject of the test is P388 leukemia ip, CD2F1 mice, survival T/C. In words: NCI In Vivo Anticancer Drug Screen. Data for tumor model P388 Leukemia (intraperitoneal) in CD2F1 (CDF1) mice. The following applies: endpoint: median survival time, higher = longer survival. In a few lines:
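Mice carrying the transplanted tumor received test compound or vehicle. Survival was recorded in each group, and the value is the treated-group measurement divided by that of the vehicle-treated control group.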

Where [1] appears, read: dose: 25.0 mg/kg/injection, schedule: Q01DX009 (ip), vehicle: saline with Tween-80.
The mark [2] stands for this setting: dose: 50.0 mg/kg/injection, schedule: Q01DX009 (ip), vehicle: saline with Tween-80.
Setting [3] is: dose: 100.0 mg/kg/injection, schedule: Q01DX009 (ip), vehicle: saline with Tween-80.
Where [4] appears, read: dose: 100.0 mg/kg/injection, schedule: Q04DX003 (ip), vehicle: saline with Tween-80.
[5] abbreviates: dose: 50.0 mg/kg/injection, schedule: Q01DX005 (ip), vehicle: Klucel (hydroxypropylcellulose) (HPC).
Where [6] appears, read: dose: 100.0 mg/kg/injection, schedule: Q01DX005 (ip), vehicle: Klucel (hydroxypropylcellulose) (HPC).
Setting [7] is: dose: 200.0 mg/kg/injection, schedule: Q01DX005 (ip), vehicle: Klucel (hydroxypropylcellulose) (HPC).
[8] abbreviates: dose: 100.0 mg/kg/injection, schedule: Q04DX002 (ip), vehicle: Klucel (hydroxypropylcellulose) (HPC).
Setting [9] is: dose: 200.0 mg/kg/injection, schedule: Q04DX002 (ip), vehicle: Klucel (hydroxypropylcellulose) (HPC).
The mark [10] stands for this setting: dose: 50.0 mg/kg/injection, schedule: Q01DX005 (ip), vehicle: saline with Tween-80.
Setting [11] is: dose: 100.0 mg/kg/injection, schedule: Q01DX005 (ip), vehicle: saline with Tween-80.
[12] abbreviates: dose: 200.0 mg/kg/injection, schedule: Q01DX005 (ip), vehicle: saline with Tween-80.
The mark [13] stands for this setting: dose: 50.0 mg/kg/injection, schedule: Q01DX005 (ip), vehicle: saline.
Where [14] appears, read: dose: 100.0 mg/kg/injection, schedule: Q01DX005 (ip), vehicle: saline.
The mark [15] stands for this setting: dose: 200.0 mg/kg/injection, schedule: Q01DX005 (ip), vehicle: saline.
Where [16] appears, read: dose: 200.0 mg/kg/injection, schedule: Q01DX009 (ip), vehicle: saline with Tween-80.
Where [17] appears, read: dose: 60.0 mg/kg/injection, schedule: Q01DX005 (ip), vehicle: saline with Tween-80.
[18] abbreviates: dose: 120.0 mg/kg/injection, schedule: Q01DX005 (ip), vehicle: saline with Tween-80.
[19] abbreviates: dose: 240.0 mg/kg/injection, schedule: Q01DX005 (ip), vehicle: saline with Tween-80.
Setting [20] is: dose: 100.0 mg/kg/injection, schedule: Q01DX001 (ip), vehicle: saline with Tween-80.
Where [21] appears, read: dose: 200.0 mg/kg/injection, schedule: Q01DX001 (ip), vehicle: saline with Tween-80.
[22] abbreviates: dose: 400.0 mg/kg/injection, schedule: Q01DX001 (ip), vehicle: saline with Tween-80.

Turning to `Nc1nc2[nH]ncc2c(=O)[nH]1`, the T/C is, setting by setting: under setting [1], 90 % of control; under setting [2], 100 % of control; (dose: 50.0 mg/kg/injection, schedule: Q04DX003 (ip), vehicle: saline with Tween-80) 104 % of control; under setting [3], 90 % of control; under setting [4], 109 % of control.

In the case of `CC(C)S(=O)(=O)/C(Cl)=C(/Cl)C(Cl)=C(Cl)Cl`, the T/C is 100 % of control (dose: 12.5 mg/kg/injection, schedule: Q01DX009 (ip), vehicle: saline with Tween-80); 109 % of control under setting [1]; 95 % of control under setting [2].

In the case of `COC1=CC(=O)C2CC=CC3CC(=O)OC1C32CO` (stereo not drawn), the T/C is 113 % of control under setting [5], 103 % of control under setting [6] and 101 % of control under setting [7].

As for `Cc1nc2ccccc2c(=O)n1N1C2CCCC21` (stereo not drawn), the T/C is, setting by setting: (dose: 50.0 mg/kg/injection, schedule: Q04DX002 (ip), vehicle: Klucel (hydroxypropylcellulose) (HPC)) 103 % of control; under setting [8], 98 % of control; under setting [9], 100 % of control.

`CC1CCC(SC2CC(=O)CCC2=O)CC1` (stereo not drawn): the T/C runs as follows: under setting [10], 104 % of control and 115 % of control; under setting [11], 106 % of control and 115 % of control; under setting [12], 122 % of control.

Consider `C[n+]1[se]c2ccccc2c1Cl`, for which the T/C was 105 % of control (dose: 3.12 mg/kg/injection, schedule: Q01DX009 (ip), vehicle: Klucel (hydroxypropylcellulose) (HPC)); 99 % of control (dose: 6.25 mg/kg/injection, schedule: Q01DX009 (ip), vehicle: Klucel (hydroxypropylcellulose) (HPC)); 99 % of control and 89 % of control (dose: 12.5 mg/kg/injection, schedule: Q01DX009 (ip), vehicle: Klucel (hydroxypropylcellulose) (HPC)).

Take `COC1C=C(C)C(=O)O1` (stereo not drawn): the T/C is 106 % of control under setting [13], 101 % of control under setting [14] and 101 % of control under setting [15].

With `COC1(OC)C2C=CC1C1CC/C=C\CCC12` (stereo not drawn), the T/C is, setting by setting: under setting [2], 106 % of control; under setting [3], 100 % of control; under setting [16], 103 % of control.

Consider `COC(=O)c1cc(-c2ccc(F)cc2)[nH]c(=O)c1C#N`, for which the T/C by setting is: under setting [17], 97 % of control; under setting [18], 106 % of control; under setting [19], 104 % of control.

On to `COc1cccc2c1C(=O)c1c(O)c3c(c(O)c1C2=O)C[C@@](O)(C(=O)CO)C[C@@H]3OC1CC(NCC#N)C(O)C(C)O1` (stereo partly drawn), for which the T/C (dose: 8.0 mg/kg/injection, schedule: Q04DX003 (ip), vehicle: saline + alcohol) is 153 % of control; the T/C (dose: 32.0 mg/kg/injection, schedule: Q04DX003 (ip), vehicle: saline + Tween-80 + alcohol) is 108 % of control; the T/C (dose: 32.0 mg/kg/injection, schedule: Q04DX003 (ip), vehicle: saline + alcohol) was 117 % of control.

With `Clc1ccc2c(N3CCC(CCC4CCN(c5ncnc6cc(Cl)ccc56)CC4)CC3)ncnc2c1`, the T/C under setting [10] is 96 % of control, the T/C under setting [11] is 94 % of control and the T/C under setting [12] was 88 % of control.

With `O=S1(=O)CC2=C(C1)C1C=CC2C2C=CC12` (stereo not drawn), the T/C by setting is: (dose: 25.0 mg/kg/injection, schedule: Q04DX003 (ip), vehicle: saline) 98 % of control; (dose: 50.0 mg/kg/injection, schedule: Q04DX003 (ip), vehicle: saline) 101 % of control; (dose: 100.0 mg/kg/injection, schedule: Q04DX003 (ip), vehicle: saline) 107 % of control and 96 % of control.

For `N#CC(C(=O)C(=O)Nc1cccc(C(F)(F)F)c1)c1ccc(Cl)cc1Cl` (stereo not drawn), the T/C under setting [17] was 94 % of control, the T/C under setting [18] was 91 % of control and the T/C under setting [19] is 92 % of control.

Consider `CCCCCc1cc(O)c2c3c(c(=O)oc2c1)CP(=O)(c1ccccc1)CC3` (stereo not drawn), for which the T/C under setting [20] was 102 % of control, the T/C under setting [21] was 98 % of control and the T/C under setting [22] was 90 % of control.

Consider `OCC1CC2(C1)CC(CO)C2` (stereo not drawn), for which the T/C runs as follows: under setting [20], 97 % of control; under setting [21], 104 % of control; under setting [22], 99 % of control.

Regarding `NCCCCC(NC(=O)C(Cc1cnc[nH]1)NC(=O)CN)C(=O)O` (stereo not drawn) (H-Gly-His-Lys-OH; configuration not given here), the T/C was 109 % of control under setting [13], 104 % of control under setting [14] and 100 % of control under setting [15].

`COc1ccccc1-n1c(C)nc2[nH]ncc2c1=O`: the T/C under setting [5] was 101 % of control, the T/C under setting [6] is 97 % of control and the T/C under setting [7] is 96 % of control.

Regarding `C/C(=N\Nc1ccccn1)c1ccccn1`, the T/C is 104 % of control (dose: 6.25 mg/kg/injection, schedule: Q01DX005 (ip), vehicle: saline with Tween-80); 100 % of control (dose: 12.5 mg/kg/injection, schedule: Q01DX005 (ip), vehicle: saline with Tween-80); 101 % of control (dose: 25.0 mg/kg/injection, schedule: Q01DX005 (ip), vehicle: saline with Tween-80).

For the molecule `O=C(CC1(O)C(=O)Nc2ccccc21)c1cccc2ccccc12` (stereo not drawn), the T/C reads like this: under setting [17], 110 % of control; under setting [18], 113 % of control; under setting [19], 103 % of control.

With `C1CC2OC2CC1C1CO1` (stereo not drawn), the T/C was 104 % of control under setting [3]; 100 % of control (dose: 100.0 mg/kg/injection, schedule: Q04DX003 (ip), vehicle: saline sonified); 104 % of control under setting [16]; 100 % of control (dose: 200.0 mg/kg/injection, schedule: Q04DX003 (ip), vehicle: saline sonified); 109 % of control (dose: 400.0 mg/kg/injection, schedule: Q04DX003 (ip), vehicle: saline sonified).

Regarding `CCCCCCCCCCC(=O)CCCC`, the T/C is, setting by setting: under setting [3], 109 % of control; under setting [4], 100 % of control; under setting [16], 104 % of control; (dose: 200.0 mg/kg/injection, schedule: Q04DX003 (ip), vehicle: saline with Tween-80) 95 % of control; (dose: 400.0 mg/kg/injection, schedule: Q01DX009 (ip), vehicle: saline with Tween-80) 109 % of control; (dose: 400.0 mg/kg/injection, schedule: Q04DX003 (ip), vehicle: saline with Tween-80) 95 % of control.

As to `COc1ccc(C(=O)C(CN(C)C)CN(C)C)cc1OC`, the T/C was 113 % of control (dose: 6.25 mg/kg/injection, schedule: Q01DX005 (ip), vehicle: saline); 117 % of control and 124 % of control (dose: 12.5 mg/kg/injection, schedule: Q01DX005 (ip), vehicle: saline); 117 % of control and 121 % of control (dose: 25.0 mg/kg/injection, schedule: Q01DX005 (ip), vehicle: saline); 112 % of control under setting [13].

For the molecule `CC(C)c1nccn1Cc1ccccc1`, the T/C is 101 % of control (dose: 15.0 mg/kg/injection, schedule: Q01DX005 (ip), vehicle: saline); 99 % of control (dose: 30.0 mg/kg/injection, schedule: Q01DX005 (ip), vehicle: saline); 101 % of control and 90 % of control (dose: 60.0 mg/kg/injection, schedule: Q01DX005 (ip), vehicle: saline).

`CP12(OC(C(F)(F)F)(C(F)(F)F)c3ccccc31)OC(C(F)(F)F)(C(F)(F)F)c1ccccc12`: the T/C is 100 % of control under setting [8]; 101 % of control under setting [9]; 96 % of control (dose: 400.0 mg/kg/injection, schedule: Q04DX002 (ip), vehicle: Klucel (hydroxypropylcellulose) (HPC)).

For the molecule `OCCN(CCO)Cc1nc2cc(Cl)c(Cl)cc2[nH]1`, the T/C by setting is: under setting [13], 97 % of control; under setting [14], 112 % of control; under setting [15], 90 % of control.
